Experimental data taken from patent publication EP4699613A1, “NOVEL USE OF CPNE7 PROTEIN-DERIVED PEPTIDE” (Hysensbio Co., Ltd, priority 2023, dated 2024).
No end group written: not given here.

Experiments:
[1] = system: Human dermal fibroblasts (hDFs); assay: WST-8 assay, cytotoxicity in dermal fibroblasts; type: cell-based; settings: 48 hours treatment; tested at 10, 100 µM, 1, 5, 10 mM; WST-8, 450nm absorbance
Experimental: Human dermal fibroblasts (hDFs) were dispensed at 0.3×10^5/well in 96-well plates (using Fibroblast Growth Medium (Lonza, CC-4126) containing 2% FBS, 0.1% Insulin, 0.1% FGF, 0.1% Gentamycin sulfate-Amphotericin) and cultured for 24 hours in an incubator at 37°C, 5% CO2 conditions.
WST-8 analysis was performed to confirm cytotoxicity of the peptide (SEQ ID NO: 96) in dermal fibroblasts. The peptide was treated on dermal fibroblasts at concentrations of 10, 100 µM, 1, 5, 10 mM respectively. After treating for 48 hours at each concentration, WST-8 solution was dispensed into the culture medium at a 10:1 ratio, light-shielded, reacted for 2 hours under 37°C incubator conditions, and then measured at 450nm absorbance with a microplate.
The peptide (SEQ ID NO: 96) of the present invention was treated on dermal fibroblasts at concentrations of 10, 100 µM, 1, 5, 10 mM respectively. After 48 hours, cell viability was quantified through WST-8 analysis.

[2] = system: human-derived three-dimensional skin tissue; assay: Skin penetration of fluorescence-conjugated peptide in human-derived three-dimensional skin tissue (confocal microscopy); type: in vitro ADME; settings: 1 mM fluorescence-conjugated peptide
Experimental: To confirm the possibility of skin penetration of the peptides of the present invention, three-dimensional skin tissue composed of epidermis and dermis was created using human-derived keratinocytes and dermal fibroblasts, and then fluorescence-conjugated peptide (SEQ ID NO: 96) of the present invention at 1 mM was treated. After treatment, the position of fluorescence was continuously observed through confocal microscopy at 1, 6, 12, and 24 hours.
FITC fluorescence was attached to the lysine residue of the peptide (SEQ ID NO: 96) of the present invention to create Peptide-FITC using the peptide (SEQ ID NO: 96) of the present invention. Peptide-FITC at 1 mM was treated on human-derived three-dimensional skin tissue (TegoScience, Neoderm-ED) and the skin penetration state of Peptide-FITC was confirmed through confocal microscopy at 1 hour, 6 hours, 12 hours, and 24 hours.

position of fluorescence (skin penetration) ([2]; after 1 hour): observed in the stratum corneum | position of fluorescence (skin penetration) ([2]; after 6 hours): observed in the epidermal layer | position of fluorescence (skin penetration) ([2]; after 24 hours): existed in the dermal layer | position of fluorescence (skin penetration) ([2]; from 12 hours onward): began to be observed in the dermal layer
Sequence: KYKQKRRSYK [SEQ ID NO: 96, KYKQKRRSYK]
no cytotoxicity to dermal fibroblasts up to a concentration of [1]: ≤ 5 mM | significant cytotoxicity at a concentration of [1]: 10 mM
